Values joined by “and” are separate entries in the source; they are usually repeats but may differ in a detail not shown here. Identical values can stand only once.
Columns and labels:
sodium channels = assay: [14C]-labelled guanidine flux through sodium channels; assay type: biochemical, rat; settings: inhibition of flux of [14C]-labelled guanidine through sodium channels
optic nerve = assay: tissue or blood; assay type: cell-based; settings: Rattus norvegicus; 30 μM of each drug; OGD 1 h; cGMP accumulation; compared with protection achieved by TTX; read-out: % protection accorded

Compound	IC50 (sodium channels)	inhibition at 30 µM (optic nerve)	IC50 (sodium channels; listed as 5-tert-Butyl-2-methyl-2H-pyrazole-3-carboxylic acid (4-tert-butyl-phenyl)-amide)
Cn1nc(C(C)(C)C)cc1C(=O)Nc1ccc(Cl)cc1 [5-tert-Butyl-2-methyl-2H-pyrazole-3-carboxylic acid (4-chloro-phenyl)-amide]	6 µM	62%	–
Cc1ccc(NC(=O)c2cc(C(C)(C)C)nn2Cc2ccccc2)cc1 [2-Benzyl-5-tert-butyl-2H-pyrazole-3-carboxylic acid p-tolylamide]	2 µM	66%	–
Cc1cccc(NC(=O)c2cc(C)n(Cc3c(Cl)cccc3Cl)n2)c1 [1-(2,6-Dichloro-benzyl)-5-methyl-1H-pyrazole-3-carboxylic acid m-tolylamide]	7 µM	29%	–
Cn1c(SCc2ccccc2)nnc1-c1cc(C(C)(C)C)nn1Cc1ccc(F)cc1 [3-Benzylsulfanyl-5-[5-tert-butyl-2-(4-fluoro-benzyl)-2H-pyrazol-3-yl]-4-methyl-4H-[1,2,4]triazole]	12 µM and 12.3 µM	72%	–
Cn1nc(C(C)(C)C)cc1C(=O)Nc1ccc(C(C)(C)C)cc1 [Example 26, 5-tert-Butyl-2-methyl-2H-pyrazole-3-carboxylic acid (4-tert-butyl-phenyl)-amide]	< 9 µM	18%	2 µM
CC(C)(C)c1cc(C(=O)NNC(=O)Nc2cccc(Cl)c2)n(Cc2ccccc2)n1 [2-Benzyl-5-tert-butyl-2H-pyrazole-3-carboxylic acid N′-(3-chlorophenylcarbamoyl) hydrazide]	5.8 µM	12%	–
Cn1c(SCC(=O)c2ccccc2)nnc1-c1cc(C(C)(C)C)nn1Cc1ccc(F)cc1 [2-{5-[5-tert-Butyl-2-(4-fluoro-benzyl)-2H-pyrazol-3-yl]-4-methyl-4H-[1,2,4]triazol-3-ylsulfanyl}-1-phenyl-ethanone]	19.5 µM	18%	–
CC(C)(C)c1cc(C(=O)NNC(=O)Nc2cccc(C(F)(F)F)c2)n(Cc2ccccc2)n1 [2-Benzyl-5-tert-butyl-2H-pyrazole-3-carboxylic arid N′-(3-trifluoromethylphenylcarbamoyl)hydrazide]	0.5 µM	–	–
Cn1nc(C(C)(C)C)cc1C(=O)Nc1nc(-c2cccnc2)cs1 [Example 44, 5-tert-Butyl-2-methyl-2H-pyrazole-3-carboxylic acid (4-(pyridin-3-yl)thiazol-2-yl)-amide]	< 9 µM	–	–
Cc1ccc(Cn2nc(C)cc2C(=O)Nc2cccc(C(F)(F)F)c2)cc1 [5-Methyl-2-(4-methyl-benzyl)-2H-pyrazole-3-carboxylic acid (3-trifluoromethyl-phenyl)-amide]	6 µM	–	–
Cc1cc(C(=O)Nc2ccc(C(C)(C)C)cc2)nn1C(C)(C)C [1-tert-Butyl-5-methyl-1H-pyrazole-3-carboxylic acid (4-tert-butyl-phenyl)-amide]	6 µM	39%	–
Cc1cccc(Cn2nc(C(C)(C)C)cc2-c2nnc(S)n2C2CCCCC2)c1 [5-[3-(tert-Butyl)-1-(3-methylbenzyl)pyrazol-5-yl]-4-cyclohexyl-1,2,4-triazole-3-thiol]	< 9 µM	–	–
O=C(Nc1ccccc1)c1cc(-c2ccccc2)n(-c2ccc(Cl)cc2)n1 [Example 11, 1-(4-Chloro-phenyl)-5-phenyl-1H-pyrazole-3-carboxylic acid phenylamide]	18 µM	–	–
CC(C)(C)c1cc(C(=O)Nc2ccccc2)n(Cc2ccccc2)n1 [Example 9, 2-Benzyl-5-tert-butyl-2H-pyrazole-3-carboxylic acid phenylamide]	< 9 µM	–	–
Cc1cc(C(=O)Nc2ncccc2OCc2ccccc2)nn1C(C)(C)C [Example 37, 1-tert-Butyl-5-methyl-1H-pyrazole-3-carboxylic acid (3-benzyloxy-pyridin-2-yl)-amide]	< 9 µM	–	–
CC(=O)Nc1ccc(NC(=O)c2cc(C)n(Cc3ccc(C)cc3)n2)cc1 [Example 38, 5-Methyl-1-(4-methyl-benzyl)-1H-pyrazole-3-carboxylic acid (4-acetylamino-phenyl)-amide]	14 µM	–	–
CC(C)(C)c1cc(C(=O)Nc2ccc(Cl)cc2)n(Cc2ccccc2)n1 [2-Benzyl-5-tert-butyl-2H-pyrazole-3-carboxylic acid (4-chloro-phenyl)-amide]	4.4 µM	–	–
CC(=O)Nc1ccc(NC(=O)c2cc(C(C)(C)C)nn2Cc2ccccc2)cc1 [Example 43, 2-Benzyl-5-tert-butyl-2H-pyrazole-3-carboxylic acid (4-acetylamino-phenyl)-amide]	16 µM	–	–
Cc1ccc(Cn2nc(C(=O)Nc3ccccc3)cc2C)cc1 [5-Methyl-1-(4-methyl-benzyl)-1H-pyrazole-3-carboxylic acid phenylamide]	23 µM	–	–
CC(=O)Nc1ccc(NC(=O)c2cc(C)n(C(C)(C)C)n2)cc1 [Example 36, 1-tert-Butyl-5-methyl-1H-pyrazole-3-carboxylic acid (4-acetylamino-phenyl)-amide]	23 µM	–	–
CC(C)(C)c1cc(C(=O)NCc2ccccc2)n(Cc2ccc(Cl)cc2Cl)n1 [Example 18, 5-tert-Butyl-2-(2,4-dichloro-benzyl)-2H-pyrazole-3-carboxylic acid benzylamide]	9 µM	–	–
CN(C)c1ccc(NC(=O)c2cc(C(C)(C)C)nn2Cc2ccccc2)cc1 [Example 27, 2-Benzyl-5-tert-butyl-2H-pyrazole-3-carboxylic acid (4-dimethylamino-phenyl)-amide]	< 9 µM	–	–
COc1ccc(NC(=O)c2cc(C(C)(C)C)nn2Cc2ccc(Cl)cc2Cl)cc1 [Example 12, 5-tert-Butyl-2-(2,4-dichloro-benzyl)-2H-pyrazole-3-carboxylic acid (4-methoxy-phenyl)-amide]	< 9 µM	–	–
CC(C)(C)c1ccc(NC(=O)c2cc(-c3ccccc3)n(-c3ccc(Cl)cc3)n2)cc1 [Example 20, 1-(4-Chloro-phenyl)-5-phenyl-1H-pyrazole-3-carboxylic acid (4-tert-butyl-phenyl)-amide]	20 µM	–	–
Cc1cc(C(=O)Nc2ccc(Cl)nc2)nn1C(C)(C)C [Example 35, 1-tert-Butyl-5-methyl-1H-pyrazole-3-carboxylic acid (6-chloro-pyridin-3-yl)-amide]	5 µM	–	–
Cn1c(SCC(=O)c2ccc(Cl)cc2)nnc1-c1cc(C(C)(C)C)nn1Cc1ccc(F)cc1 [2-{5-[5-tert-Butyl-2-(4-fluoro-benzyl)-2H-pyrazol-3-yl]-4-methyl-4H-[1,2,4]triazol-3-ylsulfanyl}-1-(4-chloro-phenyl)-ethanone]	4.6 µM	19%	–
CC(C)(C)c1cc(C(=O)Nc2ccc(Cl)c(Cl)c2)n(Cc2ccccc2)n1 [Example 24, 2-Benzyl-5-tert-butyl-2H-pyrazole-3-carboxylic acid (3,4-dichloro-phenyl)-amide]	< 9 µM	–	–
CC(C)(C)c1cc(C(=O)NCc2ccccc2)n(Cc2ccccc2)n1 [Example 10, 2-Benzyl-5-tert-butyl-2H-pyrazole-3-carboxylic acid benzylamide]	7 µM	–	–
Cn1nc(C(C)(C)C)cc1C(=O)Nc1cccc(C(=O)Nc2ccccc2)c1 [Example 33, 5-tert-Butyl-2-methyl-2H-pyrazole-3-carboxylic acid (3-phenylcarbamoyl-phenyl)-amide]	22 µM	–	–
